From patent publication US11890288B2, “Sulfonamide or sulfinamide compound having effect of inducing BRD4 protein degradation and pharmaceutical use thereof” (MITSUBISHI TANABE PHARMA CORPORATION, priority 2020, dated 2024)

Assays:
[1] = tested on: human prostate cancer LNCaP cells; experiment: Cytotoxic action on LNCaP cells (WST-8, 96 hr); format: cell-based; conditions: 96 hr culture
Outline: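 Growth-inhibition format: 96 hr continuous exposure, 37° C, 5% CO2, 10% FBS/RPMI1640, WST-8 read-out. Values are IC50 against the untreated-control survival, taken from the line joining the two points around 50%.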

[2] = tested on: human multiple myeloma MM.1S cell; experiment: Cytotoxic action on MM.1S cells (WST-8, 96 hr); format: cell-based; conditions: MM1.S
Method: (§1) The cytotoxic action of the compound of the present invention against human cancer cells was evaluated in vitro. In this experiment, (+)-JQ1 (Nature volume 468, pages 1067-1073 (23 Dec. 2010)) known to have an inhibitory activity on the binding of BRD4 protein and a ligand therefor was used as a positive control drug. Respective cells were suspended in 10% FBS/RPMI1640, seeded in a 96 well plate and cultured at 5% CO2, 37° C. overnight. A test compound dissolved in DMSO was diluted with 10% FBS/RPMI1640 and added and the cells were further cultured for 96 hr. After culturing, the viable cell number was measured using a cell number measurement WST-8 kit (Kishida Chemical Co., Ltd.). As a control, the measurement was performed under conditions free of the test compound. The cytotoxic activity of the compound of the present invention against human prostate cancer LNCaP cells is shown in IC50 value in Table 1. The IC50 value is a concentration of the compound showing 50% cell survival rate when the cell survival rate thereof under compound untreated condition is 100%. It was calculated from the straight line connecting the cell survival rate at two points enclosing the 50% cell survival rate and the compound concentration. […]

[3] = tested on: human T-cell leukemia Jurkat cells; experiment: Cytotoxic action on Jurkat cells (WST-8, 96 hr); format: cell-based
Method: as §1

[4] = tested on: human Burkitt lymphoma Raji cell; experiment: Cytotoxic action on Raji cells (WST-8, 96 hr); format: cell-based
Method: as §1

[5] = tested on: human castration-resistant prostate cancer PC-3 cell; experiment: Cytotoxic action on PC-3 cells (WST-8, 96 hr); format: cell-based; conditions: PC-3, 96 hr
Method: as §1

[6] = tested on: human AR-V7 positive castration-resistant prostate cancer 22Rv1 cell; experiment: Cytotoxic action on 22Rv1 cells (WST-8, 96 hr); format: cell-based; conditions: 22Rv1, 96 hr
Method: as §1

[7] = tested on: human cisplatin-resistant ovarian cancer SK-OV-03 cell; experiment: Cytotoxic action on SK-OV-03 cells (WST-8, 96 hr); format: cell-based; conditions: SK-OV-03, 96 hr
Method: as §1

[8] = tested on: human bladder cancer 5637 cell; experiment: Cytotoxic action on 5637 cells (WST-8, 96 hr); format: cell-based; conditions: 5637, 96 hr
Method: as §1

[9] = tested on: human breast cancer ZR-75-1 cell; experiment: Cytotoxic action on ZR-75-1 cells (WST-8, 96 hr); format: cell-based; conditions: ZR-75-1, 96 hr
Method: as §1

[10] = tested on: human uterus cervix cancer HeLa cell; experiment: Cytotoxic action on HeLa cells (WST-8, 96 hr); format: cell-based
Method: as §1

[11] = tested on: human uterine sarcoma MES-SA cell; experiment: Cytotoxic action on MES-SA cells (WST-8, 96 hr); format: cell-based
Method: as §1

[12] = tested on: human EGFRT790M mutation-positive non-small cell lung cancer NCI-H1975 cell; experiment: Cytotoxic action on NCI-H1975 cells (WST-8, 96 hr); format: cell-based; conditions: NCI-H1975, 96 hr
Method: as §1

[13] = tested on: human small cell lung cancer NCI-H82 cell; experiment: Cytotoxic action on NCI-H82 cells (WST-8, 96 hr); format: cell-based; conditions: NCI-H82, 96 hr
Method: as §1

[14] = tested on: human pancreatic cancer BxPC-3 cell; experiment: Cytotoxic action on BxPC-3 cells (WST-8, 96 hr); format: cell-based; conditions: BxPC-3, 96 hr
Method: as §1

[15] = tested on: human liver cancer HLF cell; experiment: Cytotoxic action on HLF cells (WST-8, 96 hr); format: cell-based
Method: as §1

[16] = tested on: human bile duct cancer HuCCT1 cell; experiment: Cytotoxic action on HuCCT1 cells (WST-8, 96 hr); format: cell-based; conditions: HuCCT-1, HuCCT1, 96 hr
Method: as §1

[17] = tested on: human renal cell cancer 786-O cell; experiment: Cytotoxic action on 786-O cells (WST-8, 96 hr); format: cell-based; conditions: 786-O (printed 786-0)
Method: as §1

[18] = tested on: Human breast cancer MDA-MB-436 cells; experiment: Cytotoxic action on MDA-MB-436 cells (WST-8, 96 hr); format: cell-based; conditions: Homo sapiens
Method: (§2) The cytotoxic action of the compound of the present invention against cancer cells that acquired resistance to conventional BRD4 protein degradation inducing agents was evaluated in vitro. In this experiment, ARV-771 (Proc Natl Acad Sci USA. volume 113, pages 7124-7129 (28 Jun. 2016)) and MZ1 (ACS Chem Biol. Volume 10, pages 1770-1777 (21 Aug. 2015)), in which a ligand for VHL and BRD4 protein inhibitor are linked, were used as a conventional BRD4 protein degradation inducing agent serving as a comparison control. Human breast cancer MDA-MB-436 cells and MDA-MB-436 cells that acquired resistance to conventional BRD4 protein degradation inducing agents (MDA-MB-436 w/o2 cells) were suspended in 10% FBS/RPMI1640, seeded in a 96 well plate and cultured at 5% CO2, 37° C. overnight. A test compound dissolved in DMSO was diluted with 10% FBS/RPMI1640 and added and the cells were further cultured for 96 hr. After culturing, the viable cell number was measured using a cell number measurement WST-8 kit (Kishida Chemical Co., Ltd.). As a control, the measurement was performed under conditions free of the test compound. The cytotoxic activity of the compound of the present invention against each cell is shown in IC50 value in Table 4. The IC50 value is a concentration of the compound showing 50% cell survival rate when the cell survival rate thereof under compound untreated condition is 100%. It was calculated from the straight line connecting the cell survival rate at two points enclosing the 50% cell survival rate and the compound concentration. In addition, the tolerance (fold) was calculated by dividing the IC50 value in MDA-MB-436 w/o2 cells by the IC50 value in MDA-MB-436 cells.

[19] = tested on: MDA-MB-436 w/o2 cells; experiment: Cytotoxic action on MDA-MB-436 w/o2 cells that acquired resistance to conventional BRD4 degraders (WST-8, 96 hr); format: cell-based, human
Method: as §2

[20] = Maximum tolerated dose in rats (single tail vein administration); conditions: rat, in vivo, intravenous, male CD (SD) rats
Method: The maximum tolerated dose (MTD) in rats was determined for the compound of the present invention.

Which IC50 [1] does the source give for `COC(=O)C[C@@H]1N=C(c2ccc(-c3ccc(C(=O)NCc4ccc(S(=O)(=O)Nc5ccc(C)c6c(C#N)c[nH]c56)cc4)cc3)cc2)c2c(sc(C)c2C)-n2c(C)nnc21` [Example 1, methyl [(6S)-4-{4′-[({4-[(3-cyano-4-methyl-1H-indol-7-yl)sulfamoyl]phenyl}methyl)carbamoyl][1,1′-biphenyl]-4-yl}-2,3,9-trimethyl-6H-thieno[3,2-f][1,2,4]triazolo[4,3-a][1,4]diazepin-6-yl]acetate] here?
The IC50 was 0.14 nM.

And the IC50 [2]?
The IC50 was 0.026 nM.

What about the IC50 [3] of the same compound?
Its IC50 is 1.3 nM.

And the IC50 [4]?
The IC50 was 5.3 nM.

And the IC50 [5]?
The IC50 was 0.88 nM.

And the IC50 [6]?
Its IC50 is 0.71 nM.

And the IC50 [7]?
Its IC50 is 41 nM.

What about the IC50 [8] of the same compound?
Its IC50 is 1.9 nM.

What about the IC50 [9] of the same compound?
The IC50 was 27 nM.

What about the IC50 [10] of the same compound?
Its IC50 is 27 nM.

What about the IC50 [11] of the same compound?
Its IC50 is 1.8 nM.

And the IC50 [12]?
Its IC50 is 3.6 nM.

What about the IC50 [13] of the same compound?
Its IC50 is 21 nM.

What about the IC50 [14] of the same compound?
Its IC50 is 3.3 nM.

And the IC50 [15]?
Its IC50 is 2.9 nM.

What about the IC50 [16] of the same compound?
The IC50 was 26 nM.

And the IC50 [17]?
The IC50 was 660 nM.

What about the IC50 [18] of the same compound?
The IC50 was 0.39 nM.

And the IC50 ([19]; Homo sapiens, MDA-MB-436 w/o2 cells, 96 hr)?
Its IC50 is 0.51 nM.

What about the resistance ([19]; IC50 in MDA-MB-436 w/o2 cells divided by IC50 in MDA-MB-436 cells) of the same compound?
The resistance was 1.3 fold.

And the MTD [20]?
The MTD was > 10 mg/kg.
